Test results as given in ChEMBL document CHEMBL3228022, “Synthesis of 2,3,4,4a,5,9b-hexahydro-1H-pyrido[4,3-b]indole derivatives and their central nervous system activities” (1979).
Active and inactive are the calls of the source. No cut-off for these calls is given here.

What was measured:
Mus musculus [1] = assay: Neuroleptic activity in STD-ddy mouse assessed as catalepsy at 100 mg/kg, po measured up to 30 secs; type: functional, organism-based; set-up: dose 100 mg/kg
Mus musculus [2] = assay: Neuroleptic activity in STD-ddy mouse assessed as muscle relaxation at 100 mg/kg, po after 20 mins; type: functional, organism-based; set-up: dose 100 mg/kg
Mus musculus [3] = assay: Neuroleptic activity in STD-ddy mouse assessed as inhibition of locomotion at 100 mg/kg, po measured for 3 mins; type: functional; conditions: 0.05 h
Rattus norvegicus [4] = assay: Neuroleptic activity in po dosed Wistar HLA rat assessed as inhibition of intracranial self-stimulation measured for 1 to 24 hrs; type: functional
Mus musculus [5] = assay: Neuroleptic activity in po dosed STD-ddy mouse assessed as inhibition of locomotion measured for 3 mins; type: functional; conditions: 0.05 h
Mus musculus [6] = assay: Neuroleptic activity in po dosed STD-ddy mouse assessed as inhibition of active avoidance; type: functional
Mus musculus [7] = assay: Neuroleptic activity in po dosed STD-ddy mouse assessed as catalepsy measured up to 30 secs; type: functional
Rattus norvegicus [8] = assay: Neuroleptic activity in Wistar HLA rat assessed as inhibition of methamphetamine-induced stereotyped behavior at 5 mg/kg, ip administered 20 mins before methamphetamine challenge measured every 30 mins for 3 hrs followed by every 1 hr for further 3 hrs; type: functional; set-up: Activity: scale not given: the % may be the effect or the level left; conditions: route intraperitoneal
Rattus norvegicus [9] = assay: Neuroleptic activity in Wistar HLA rat assessed as inhibition of methamphetamine-induced stereotyped behavior at 2 mg/kg, ip administered 20 mins before methamphetamine challenge measured every 30 mins for 3 hrs followed by every 1 hr for further 3 hrs; type: functional; set-up: Activity: scale not given: the % may be the effect or the level left; conditions: route intraperitoneal
Rattus norvegicus [10] = assay: Neuroleptic activity in Wistar HLA rat assessed as inhibition of methamphetamine-induced stereotyped behavior at 1 mg/kg, ip administered 20 mins before methamphetamine challenge measured every 30 mins for 3 hrs followed by every 1 hr for further 3 hrs; type: functional; set-up: Activity: scale not given: the % may be the effect or the level left; conditions: route intraperitoneal
Mus musculus [11] = assay: Neuroleptic activity in STD-ddy mouse assessed as inhibition of locomotion at 10 mg/kg, po measured for 3 mins; type: functional; conditions: 0.05 h
Rattus norvegicus [12] = assay: Neuroleptic activity in Wistar HLA rat assessed as inhibition of methamphetamine-induced stereotyped behavior at 10 mg/kg, ip administered 20 mins before methamphetamine challenge measured every 30 mins for 3 hrs followed by every 1 hr for further 3 hrs; type: functional; set-up: Activity: scale not given: the % may be the effect or the level left; conditions: route intraperitoneal; for inhibition in vivo at 10 mg/kg: Rattus norvegicus, Wistar HLA, ip
Rattus norvegicus [13] = assay: Neuroleptic activity in Wistar HLA rat assessed as stimulation of methamphetamine-induced stereotyped behavior at 5 mg/kg, ip administered 20 mins before methamphetamine challenge measured every 30 mins for 3 hrs followed by every 1 hr for further 3 hrs; type: functional; conditions: route intraperitoneal
Rattus norvegicus [14] = assay: Neuroleptic activity in Wistar HLA rat assessed as stimulation of methamphetamine-induced stereotyped behavior at 10 mg/kg, ip administered 20 mins before methamphetamine challenge measured every 30 mins for 3 hrs followed by every 1 hr for further 3 hrs; type: functional; conditions: route intraperitoneal
Rattus norvegicus [15] = assay: Neuroleptic activity in Wistar HLA rat assessed as stimulation of methamphetamine-induced stereotyped behavior at 2 mg/kg, ip administered 20 mins before methamphetamine challenge measured every 30 mins for 3 hrs followed by every 1 hr for further 3 hrs; type: functional; conditions: route intraperitoneal
Mus musculus [16] = assay: Neuroleptic activity in po dosed STD-ddy mouse assessed as inhibition of methamphetamine-induced stereotyped behavior administered 100 mins before methamphetamine challenge measured for 20 mins; type: functional
Rattus norvegicus [17] = assay: Neuroleptic activity in sc dosed Wistar HLA rat assessed as inhibition of apomorphine-induced gnawing administered 1 hr before apomorphine challenge measured 5 to 20 mins; type: functional
Rattus norvegicus [18] = assay: Neuroleptic activity in ip dosed Wistar HLA rat assessed as inhibition of intracranial self-stimulation measured for 1 to 24 hrs; type: functional
[19] = Rattus norvegicus, Wistar HLA, ip

Row | Compound | Activity (Mus musculus [1]) | Activity (Mus musculus [2]) | inhibition in vivo at 100 mg/kg (Mus musculus [3]) [%] | ED50 (Rattus norvegicus [4]) [mg/kg] | ED50 (Mus musculus [5]) [mg/kg] | ED50 (Mus musculus [6]) [mg/kg] | ED50 (Mus musculus [7]) [mg/kg] | Activity (Rattus norvegicus [9]) [%] | Activity (Rattus norvegicus [10]) [%] | inhibition in vivo at 10 mg/kg (Mus musculus [11]) [%] | further results
1 | Cc1ccc2c(c1)[C@H]1CN(C)CC[C@@H]1N2 (relative stereo) | inactive | inactive | 79.7 |  |  |  |  |  |  |  | 
2 | Cc1ccc2c(c1)[C@H]1CN(CCCN(C)C)CC[C@H]1N2 (relative stereo) | inactive | inactive | 12.3 |  |  |  |  |  |  |  | 
3 | CN1c2ccc(F)cc2[C@H]2CN(CCCC(=O)c3ccc(F)cc3)CC[C@@H]21.O=C(O)/C=C\C(=O)O (relative stereo) |  |  | 92.7 | 7.37 | 12.8 | 4.58 | 30.7 |  |  |  | 
4 | Cl.O=C(CCCN1CC[C@@H]2Nc3ccc(F)cc3[C@H]2C1)c1ccc(F)cc1 (relative stereo) |  |  | 92.2 | 4.54 | 7.12 | 5.19 | 8.08 |  |  |  | 
5 | Cc1ccc2c(c1)[C@H]1CN(CCCN3c4ccccc4Sc4cc(Cl)ccc43)CC[C@H]1N2.Cl (relative stereo) |  | inactive | 96.9 |  |  |  |  | 0 | 0 | 56.6 | Activity (Rattus norvegicus [8]): 0%; Activity (Rattus norvegicus [12]): 0%
6 | Cc1ccc2c(c1)[C@H]1CN(CCCC(=O)c3ccc(F)cc3)CC[C@H]1N2C.Cl (relative stereo) | Active |  | 95.8 | 30 | 10.2 | 20.1 | 40.3 | 0 | 0 | 55.8 | Activity (Rattus norvegicus [13]): 50%; Activity (Rattus norvegicus [14]): 50%
7 | CCc1ccc2c(c1)[C@H]1CN(CCCC(=O)c3ccc(F)cc3)CC[C@H]1N2.Cl (relative stereo) | inactive | inactive | 44 |  |  |  |  |  |  |  | Activity (Rattus norvegicus [15]): 25%; Activity (Rattus norvegicus [13]): >75%; Activity (Rattus norvegicus [14]): >75%
8 | Cc1ccc2c(c1)[C@H]1CN(C)CC[C@H]1N2 (relative stereo) [STOBADINE] | inactive | inactive | 37.6 | > 100 | 150 |  | > 150 |  | 0 |  | Activity (Rattus norvegicus [15]): 25%; Activity (Rattus norvegicus [13]): 50%; ED50 (Mus musculus [16]): > 100 mg/kg; Activity (Rattus norvegicus [14]): >75%; ED50 (Rattus norvegicus [17]): > 100 mg/kg
9 | Cc1ccc2c(c1)[C@H]1CN(CCCC(=O)c3ccc(F)cc3)CC[C@@H]1N2C.O=C(O)/C=C\C(=O)O (relative stereo) | Active |  | 97.4 | 8.44 | 14.5 | 11.5 | 55.9 |  |  |  | 
10 | CCN1c2ccc(C)cc2[C@H]2CN(CCCC(=O)c3ccc(F)cc3)CC[C@H]21.Cl (relative stereo) | Active | Active | 92.9 |  |  |  |  | 0 | 0 | 34 | Activity (Rattus norvegicus [13]): >75%; Activity (Rattus norvegicus [14]): >75%
11 | Cc1ccc2c(c1)[C@H]1CN(CCCC(c3ccc(F)cc3)c3ccc(F)cc3)CC[C@H]1N2 (relative stereo) |  | inactive | 90.7 |  |  |  |  |  |  | -73 | 
12 | Cc1ccc2c(c1)[C@H]1CN(CCO)CC[C@H]1N2 (relative stereo) | inactive | inactive | 30.7 |  |  |  |  |  |  |  | 
13 | CN(C)CCCN1c2ccccc2Sc2ccc(Cl)cc21 [CHLORPROMAZINE] | Active | Active | 97.4 |  | 7.42 | 5.59 | 9.97 | 0 |  | 67.6 | Activity (Rattus norvegicus [8]): 50%; ED50 (Rattus norvegicus [18]): 2.1 mg/kg; ED50 (Mus musculus [16]): 13.3 mg/kg; ED50 (Rattus norvegicus [17]): 3.25 mg/kg; inhibition in vivo at 10 mg/kg (Rattus norvegicus [12]): > 75%
14 | Cc1ccc2c(c1)[C@H]1CN(CCCC(=O)c3ccc(F)cc3)CC[C@@H]1N2.Cl (relative stereo) |  |  | 86.5 | 6.28 | 9.73 | 9.73 | 7.18 |  | 25 |  | inhibition in vivo at 5 mg/kg (Rattus norvegicus [8]; [19]): > 75%; inhibition in vivo at 2 mg/kg (Rattus norvegicus [9]; [19]): 50%; inhibition in vivo at 10 mg/kg (Rattus norvegicus [12]): > 75%
15 | COc1ccc2c(c1)[C@H]1CN(CCCC(=O)c3ccc(F)cc3)CC[C@H]1N2.Cl (relative stereo) |  | Active | 96.7 |  |  |  |  | 0 | 0 | 61.7 | Activity (Rattus norvegicus [8]): 0%; inhibition in vivo at 10 mg/kg (Rattus norvegicus [12]): 25%
